Reference: ChEMBL document CHEMBL5678816, “A Next-Generation TRK Kinase Inhibitor Overcomes Acquired Resistance to Prior TRK Kinase Inhibition in Patients with TRK Fusion-Positive Solid Tumors” (Cancer Discov, 2017)
Activity calls are given as the source filed them. No cut-off for these calls is given here.

Legend:
[1] = Clearance in dog at 1 mg/kg, iv administered as 20% hydroxypropyl-beta-cyclodextrin formulation by LC-MS analysis; type: ADME, organism-based, Canis lupus familiaris; settings: in vivo
[2] = Inhibition of N-terminal 3FLAG-tagged ETV6-TRKC G623R mutant (unknown origin) expressed in NIH3T3 cells assessed as ERK1/2 phosphorylation incubated for 1 hrs by flow cytometric analysis; type: cell-based, Homo sapiens
[3] = Inhibition of N-terminal 3FLAG-tagged ETV6-TRKC G696A mutant (unknown origin) expressed in NIH3T3 cells assessed as ERK1/2 phosphorylation incubated for 1 hrs by flow cytometric analysis; type: cell-based, Homo sapiens
[4] = system: COR-L105; assay: Inhibition of cell proliferation in human COR-L105 cells upto 10 umol/L incubated for 72 hrs by DAPI staining based analysis; type: functional; settings: dose <= 10.0 µmol/L
[5] = system: SJRH30; assay: Inhibition of cell proliferation in human SJRH30 cells upto 10 umol/L incubated for 72 hrs by DAPI staining based analysis; type: functional; settings: dose <= 10.0 µmol/L
[6] = system: DK-MG; assay: Inhibition of cell proliferation in human DK-MG cells upto 10 umol/L incubated for 72 hrs by DAPI staining based analysis; type: functional; settings: dose <= 10.0 µmol/L
[7] = system: EFM-19; assay: Inhibition of cell proliferation in human EFM-19 cells upto 10 umol/L incubated for 72 hrs by DAPI staining based analysis; type: functional; settings: dose <= 10.0 µmol/L
[8] = system: HEL 92.1.7; assay: Inhibition of cell proliferation in human HEL 92.1.7 cells upto 10 umol/L incubated for 72 hrs by DAPI staining based analysis; type: functional; settings: dose <= 10.0 µmol/L
[9] = system: SW1353; assay: Inhibition of cell proliferation in human SW1353 cells upto 10 umol/L incubated for 72 hrs by DAPI staining based analysis; type: functional; settings: dose <= 10.0 µmol/L
[10] = system: BT-474; assay: Inhibition of cell proliferation in human BT-474 cells upto 10 umol/L incubated for 72 hrs by DAPI staining based analysis; type: functional; settings: dose <= 10.0 µmol/L
[11] = system: BT-549; assay: Inhibition of cell proliferation in human BT-549 cells upto 10 umol/L incubated for 72 hrs by DAPI staining based analysis; type: functional; settings: dose <= 10.0 µmol/L
[12] = system: BXPC-3; assay: Inhibition of cell proliferation in human BXPC-3 cells upto 10 umol/L incubated for 72 hrs by DAPI staining based analysis; type: functional; settings: dose <= 10.0 µmol/L
[13] = system: Rec1; assay: Inhibition of cell proliferation in human REC1 cells upto 10 umol/L incubated for 72 hrs by DAPI staining based analysis; type: functional; settings: dose <= 10.0 µmol/L
[14] = system: JeKo-1; assay: Inhibition of cell proliferation in human JeKo-1 cells upto 10 umol/L incubated for 72 hrs by DAPI staining based analysis; type: functional; settings: dose <= 10.0 µmol/L
[15] = Cmin in adult patient with recurrent LMNA-NTRK1 rearranged colorectal cancer at 100 mg administered twice a day as powder-in-capsule or liquid formulation for 15 day and measured 10 hrs post dose by LC-MS/MS analysis; type: ADME; settings: human, in vivo, po, read-out: Cmin
[16] = molecular target: Tyrosine-protein kinase Blk (Homo sapiens) (UniProt P51451); assay: Inhibition of BLK (unknown origin) at 1 uM in presence of ATP relative to control; values are per cent of control
[17] = molecular target: Insulin receptor-related protein (Homo sapiens) (UniProt P14616); assay: Inhibition of IRR (unknown origin) at 1 uM in presence of ATP relative to control; values are per cent of control
[18] = molecular target: Rhodopsin kinase GRK7 (Homo sapiens) (UniProt Q8WTQ7); assay: Inhibition of GRK7 (unknown origin) at 1 uM in presence of ATP relative to control; values are per cent of control
[19] = molecular target: Ribosomal protein S6 kinase alpha-1 (Homo sapiens) (UniProt Q15418); assay: Inhibition of Rsk1 (unknown origin) at 1 uM in presence of ATP relative to control; values are per cent of control
[20] = molecular target: Serine/threonine-protein kinase mTOR (Homo sapiens) (UniProt P42345); assay: Inhibition of MTOR (unknown origin) at 1 uM in presence of ATP relative to control; values are per cent of control
[21] = molecular target: Activated CDC42 kinase 1 (Homo sapiens) (UniProt Q07912); assay: Inhibition of TNK2 (unknown origin) at 1 uM in presence of ATP relative to control; values are per cent of control
[22] = molecular target: Death-associated protein kinase 1 (Homo sapiens) (UniProt P53355); assay: Inhibition of DAPK1 (unknown origin) at 1 uM in presence of ATP relative to control; values are per cent of control
[23] = molecular target: Serine/threonine-protein kinase MARK1 (Homo sapiens) (UniProt Q9P0L2); assay: Inhibition of MARK1 (unknown origin) at 1 uM in presence of ATP relative to control; values are per cent of control
[24] = molecular target: Serine/threonine-protein kinase 33 (Homo sapiens) (UniProt Q9BYT3); assay: Inhibition of STK33 (unknown origin) at 1 uM in presence of ATP relative to control; values are per cent of control
[25] = molecular target: Dual specificity tyrosine-phosphorylation-regulated kinase 2 (Homo sapiens) (UniProt Q92630); assay: Inhibition of DYRK2 (unknown origin) at 1 uM in presence of ATP relative to control; values are per cent of control
[26] = molecular target: Ephrin type-A receptor 7 (Homo sapiens) (UniProt Q15375); assay: Inhibition of EphA7 (unknown origin) at 1 uM in presence of ATP relative to control; values are per cent of control
[27] = molecular target: Tyrosine-protein kinase ZAP-70 (Homo sapiens) (UniProt P43403); assay: Inhibition of ZAP-70 (unknown origin) at 1 uM in presence of ATP relative to control; values are per cent of control
[28] = molecular target: Protein kinase C zeta type (Homo sapiens) (UniProt Q05513); assay: Inhibition of PKCzeta (unknown origin) at 1 uM in presence of ATP relative to control; values are per cent of control
[29] = species: Homo sapiens; assay: Inhibition of PKCgamma (unknown origin) at 1 uM in presence of ATP relative to control; values are per cent of control
[30] = molecular target: Mitogen-activated protein kinase 13 (Homo sapiens) (UniProt O15264); assay: Inhibition of […] (unknown origin) at 1 uM in presence of ATP relative to control; values are per cent of control
[31] = molecular target: AMP-activated protein kinase (AMPK) alpha-1/beta-1/gamma-1 (Homo sapiens) (UniProt P54619+Q9Y478+Q13131); assay: Inhibition of AMPK alpha1/beta1/gamma1 (unknown origin) at 1 uM in presence of ATP relative to control; values are per cent of control

Rhodopsin kinase GRK7 (Homo sapiens), sequence (Q8WTQ7 whole entry): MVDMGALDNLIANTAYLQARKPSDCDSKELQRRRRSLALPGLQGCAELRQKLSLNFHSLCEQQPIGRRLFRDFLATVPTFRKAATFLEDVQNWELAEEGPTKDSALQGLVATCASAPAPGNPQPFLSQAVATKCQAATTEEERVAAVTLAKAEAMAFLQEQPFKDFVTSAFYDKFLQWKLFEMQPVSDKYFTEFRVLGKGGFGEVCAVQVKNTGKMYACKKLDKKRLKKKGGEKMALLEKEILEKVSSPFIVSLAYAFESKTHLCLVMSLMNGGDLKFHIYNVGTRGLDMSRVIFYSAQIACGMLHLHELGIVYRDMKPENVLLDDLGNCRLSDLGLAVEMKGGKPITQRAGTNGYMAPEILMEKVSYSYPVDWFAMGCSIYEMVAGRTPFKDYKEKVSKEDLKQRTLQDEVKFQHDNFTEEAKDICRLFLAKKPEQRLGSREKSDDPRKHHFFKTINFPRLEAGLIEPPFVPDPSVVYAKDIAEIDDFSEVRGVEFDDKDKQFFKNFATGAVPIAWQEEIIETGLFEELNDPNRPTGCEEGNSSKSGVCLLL
Insulin receptor-related protein (Homo sapiens), sequence (P14616 27-742 limits assumed): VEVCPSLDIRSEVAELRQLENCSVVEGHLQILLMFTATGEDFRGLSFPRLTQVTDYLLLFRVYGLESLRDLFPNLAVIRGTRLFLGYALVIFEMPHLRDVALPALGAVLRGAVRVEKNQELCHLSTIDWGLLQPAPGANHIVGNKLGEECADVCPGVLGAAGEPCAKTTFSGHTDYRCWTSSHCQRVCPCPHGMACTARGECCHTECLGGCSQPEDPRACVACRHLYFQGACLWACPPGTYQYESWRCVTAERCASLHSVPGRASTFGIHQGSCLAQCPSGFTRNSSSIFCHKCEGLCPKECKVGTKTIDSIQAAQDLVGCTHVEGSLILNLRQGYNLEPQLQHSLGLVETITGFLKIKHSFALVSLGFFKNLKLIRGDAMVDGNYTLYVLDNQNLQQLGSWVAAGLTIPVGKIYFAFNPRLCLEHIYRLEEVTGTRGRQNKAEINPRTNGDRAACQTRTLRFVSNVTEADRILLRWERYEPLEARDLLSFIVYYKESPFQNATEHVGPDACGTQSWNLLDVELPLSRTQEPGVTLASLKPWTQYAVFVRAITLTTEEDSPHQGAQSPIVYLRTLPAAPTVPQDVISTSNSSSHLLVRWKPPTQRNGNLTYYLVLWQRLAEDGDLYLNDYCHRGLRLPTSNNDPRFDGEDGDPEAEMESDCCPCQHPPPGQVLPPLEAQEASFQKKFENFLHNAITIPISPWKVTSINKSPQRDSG
Insulin receptor-related protein (Homo sapiens), sequence (P14616 747-1297 limits assumed): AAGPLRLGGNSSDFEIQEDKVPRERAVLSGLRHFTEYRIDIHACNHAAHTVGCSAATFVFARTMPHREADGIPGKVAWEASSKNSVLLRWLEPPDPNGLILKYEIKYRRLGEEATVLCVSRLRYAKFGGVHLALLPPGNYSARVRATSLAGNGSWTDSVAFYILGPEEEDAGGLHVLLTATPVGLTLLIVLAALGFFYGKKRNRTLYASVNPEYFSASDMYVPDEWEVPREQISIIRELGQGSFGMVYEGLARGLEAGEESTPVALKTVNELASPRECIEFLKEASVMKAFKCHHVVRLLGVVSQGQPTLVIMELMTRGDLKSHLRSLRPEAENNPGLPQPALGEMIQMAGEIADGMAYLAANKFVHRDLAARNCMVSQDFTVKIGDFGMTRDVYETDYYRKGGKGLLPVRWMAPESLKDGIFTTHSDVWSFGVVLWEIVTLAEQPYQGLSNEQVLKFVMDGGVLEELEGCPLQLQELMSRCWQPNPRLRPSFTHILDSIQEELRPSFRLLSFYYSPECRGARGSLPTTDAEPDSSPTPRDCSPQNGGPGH
Serine/threonine-protein kinase 33 (Homo sapiens), sequence (Q9BYT3 whole entry, looked up): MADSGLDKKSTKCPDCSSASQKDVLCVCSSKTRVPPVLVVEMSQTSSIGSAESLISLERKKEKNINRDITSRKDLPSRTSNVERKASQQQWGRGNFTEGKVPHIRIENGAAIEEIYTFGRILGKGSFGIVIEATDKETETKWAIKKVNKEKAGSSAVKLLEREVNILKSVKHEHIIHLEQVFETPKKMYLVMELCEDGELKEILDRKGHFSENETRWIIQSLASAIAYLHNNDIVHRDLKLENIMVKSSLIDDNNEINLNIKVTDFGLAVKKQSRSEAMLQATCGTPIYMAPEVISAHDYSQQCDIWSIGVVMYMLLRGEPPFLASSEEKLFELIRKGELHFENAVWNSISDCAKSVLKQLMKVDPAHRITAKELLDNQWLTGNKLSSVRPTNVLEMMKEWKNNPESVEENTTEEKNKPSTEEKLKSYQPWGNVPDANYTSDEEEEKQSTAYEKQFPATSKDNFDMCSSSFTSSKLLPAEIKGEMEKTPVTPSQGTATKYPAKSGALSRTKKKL
Ephrin type-A receptor 7 (Homo sapiens), sequence (Q15375 28-998 limits assumed): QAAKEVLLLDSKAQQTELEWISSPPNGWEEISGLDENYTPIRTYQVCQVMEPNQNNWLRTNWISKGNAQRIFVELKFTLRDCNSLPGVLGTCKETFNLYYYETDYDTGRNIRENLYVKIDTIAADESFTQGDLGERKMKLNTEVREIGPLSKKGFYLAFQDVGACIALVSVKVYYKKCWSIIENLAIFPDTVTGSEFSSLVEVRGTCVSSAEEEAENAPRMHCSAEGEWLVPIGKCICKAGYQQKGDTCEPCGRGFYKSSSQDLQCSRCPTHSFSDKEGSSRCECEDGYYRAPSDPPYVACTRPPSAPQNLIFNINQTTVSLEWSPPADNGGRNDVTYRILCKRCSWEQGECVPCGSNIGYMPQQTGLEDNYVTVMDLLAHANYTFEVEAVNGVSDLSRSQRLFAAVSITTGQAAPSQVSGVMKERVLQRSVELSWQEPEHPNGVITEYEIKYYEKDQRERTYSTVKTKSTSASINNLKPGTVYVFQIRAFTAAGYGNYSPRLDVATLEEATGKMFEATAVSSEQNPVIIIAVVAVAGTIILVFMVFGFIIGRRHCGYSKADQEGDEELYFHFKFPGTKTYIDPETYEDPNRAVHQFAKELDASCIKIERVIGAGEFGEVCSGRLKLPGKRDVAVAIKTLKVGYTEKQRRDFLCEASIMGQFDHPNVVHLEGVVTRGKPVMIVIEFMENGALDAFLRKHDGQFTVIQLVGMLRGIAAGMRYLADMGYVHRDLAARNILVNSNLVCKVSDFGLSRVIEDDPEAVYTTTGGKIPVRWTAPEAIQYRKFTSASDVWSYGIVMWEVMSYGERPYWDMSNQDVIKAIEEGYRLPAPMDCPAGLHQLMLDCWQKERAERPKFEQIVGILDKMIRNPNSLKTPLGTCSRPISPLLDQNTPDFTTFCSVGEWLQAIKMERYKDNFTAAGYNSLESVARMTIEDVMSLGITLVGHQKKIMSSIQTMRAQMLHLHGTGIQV
Death-associated protein kinase 1 (Homo sapiens), sequence (P53355 whole entry, looked up): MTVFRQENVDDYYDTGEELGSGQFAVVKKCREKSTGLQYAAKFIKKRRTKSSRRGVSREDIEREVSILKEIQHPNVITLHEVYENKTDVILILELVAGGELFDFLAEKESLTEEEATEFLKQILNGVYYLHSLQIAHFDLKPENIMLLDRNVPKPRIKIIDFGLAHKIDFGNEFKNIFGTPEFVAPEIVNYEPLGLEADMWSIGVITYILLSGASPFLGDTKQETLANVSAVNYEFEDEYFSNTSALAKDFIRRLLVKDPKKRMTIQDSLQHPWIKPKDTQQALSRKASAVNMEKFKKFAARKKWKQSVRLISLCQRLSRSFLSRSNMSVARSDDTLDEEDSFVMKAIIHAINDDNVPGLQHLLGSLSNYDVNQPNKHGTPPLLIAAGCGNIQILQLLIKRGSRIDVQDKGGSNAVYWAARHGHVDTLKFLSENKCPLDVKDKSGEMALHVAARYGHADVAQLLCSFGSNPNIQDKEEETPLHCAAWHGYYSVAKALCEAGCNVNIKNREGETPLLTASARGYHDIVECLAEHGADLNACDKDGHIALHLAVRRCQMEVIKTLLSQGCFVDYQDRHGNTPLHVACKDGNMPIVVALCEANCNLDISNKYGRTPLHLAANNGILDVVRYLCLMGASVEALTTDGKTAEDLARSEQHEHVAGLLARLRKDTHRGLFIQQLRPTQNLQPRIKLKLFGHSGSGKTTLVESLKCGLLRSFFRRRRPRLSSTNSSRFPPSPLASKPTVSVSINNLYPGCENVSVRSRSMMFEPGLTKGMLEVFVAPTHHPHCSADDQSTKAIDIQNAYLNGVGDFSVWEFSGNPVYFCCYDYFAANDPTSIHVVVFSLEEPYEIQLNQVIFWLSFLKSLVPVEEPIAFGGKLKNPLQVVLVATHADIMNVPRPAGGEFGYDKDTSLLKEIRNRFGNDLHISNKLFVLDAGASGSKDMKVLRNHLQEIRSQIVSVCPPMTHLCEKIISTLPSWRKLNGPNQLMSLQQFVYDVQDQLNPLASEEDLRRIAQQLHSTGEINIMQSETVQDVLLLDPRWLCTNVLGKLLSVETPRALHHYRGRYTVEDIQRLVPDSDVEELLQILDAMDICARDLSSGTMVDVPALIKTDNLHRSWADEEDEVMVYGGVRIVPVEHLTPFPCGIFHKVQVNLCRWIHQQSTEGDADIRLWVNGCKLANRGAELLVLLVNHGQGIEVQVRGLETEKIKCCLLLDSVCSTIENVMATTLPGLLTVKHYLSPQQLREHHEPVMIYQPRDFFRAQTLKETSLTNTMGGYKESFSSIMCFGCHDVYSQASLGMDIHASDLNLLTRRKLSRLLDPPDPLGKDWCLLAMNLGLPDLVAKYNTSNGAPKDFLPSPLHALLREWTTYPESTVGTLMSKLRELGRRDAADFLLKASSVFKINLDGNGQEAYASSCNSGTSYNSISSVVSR

Work on `C[C@@H]1CCc2ncc(F)cc2[C@H]2CCCN2c2ccn3ncc(c3n2)C(=O)N1` [SELITRECTINIB] yielded a clearance [1] of 12.8 mL/min/kg, an IC50 [2] of 45.5 nM and an IC50 [3] of 17.5 nM. The inhibition [4] was “inactive”, the inhibition [5] was “inactive” and the inhibition [6] was “inactive”. The inhibition [7] was “inactive”, the inhibition [8] was “inactive” and the inhibition [9] was “inactive”. For the same molecule, the inhibition [10] was “inactive”, the inhibition [11] was “inactive” and the inhibition [12] was “inactive”. For the same molecule, the inhibition [13] was “inactive”, the inhibition [14] was “inactive” and the concentration at 370 h [15] was 7.78 ng/mL. It also gave a residual activity [16] of 108%, a residual activity [17] of 111% and a residual activity [18] of 70.5%. It also gave a residual activity [19] of 109%, a residual activity [20] of 95% and a residual activity [21] of 10%. It also gave a residual activity [22] of 120%, a residual activity [23] of 94% and a residual activity [24] of 106%. The residual activity [25] was 102%, the residual activity [26] was 103% and the residual activity [27] was 118%. It also gave a residual activity [28] of 106%, a residual activity [29] of 97.5% and a residual activity [30] of 110%. It also gave a residual activity [31] of 96.5%.
